# Measurements published in US4873342A, “Dipeptide derivative and synthesis and use thereof” (Suntory Limited, priority 1985, dated 1989).
# Peptide text beside a SMILES is read from it. * marks the point of attachment. Hydrocinnamoyl = O=C(CCc1ccccc1)*; PhAc = O=C(Cc1ccccc1)*
# Columns and labels:
# [1] = biological target: prolyl endopeptidase (Elizabethkingia meningoseptica, UniProt P27028); assay: Measurement of anti-prolyl endopeptidase activity (decomposition of Z-glycyl-prolyl-β-naphthylamide); assay type: biochemical; conditions: substrate Z-glycyl-proline-β-naphthylamide, phosphate buffer pH 7.0
# Method: The method of Yoshimoto and Tsuru (T. Yoshimoto and D. Tsuru, Agr. Biol. Chem. 42, 2417, 1978) was used to measure the anti-prolyl endopeptidase activities of several compounds according to the present invention. A mixture of 0.0025M Z--glycyl--proline--β--naphthylamide (0.25 ml), 0.1M phosphate buffer (pH 7.0; 0.99 ml) and a solution of a particular anti-prolyl endopeptidase compound (0.01 ml) was incubated in a test tube at 37° C. for 3 minutes. Thereafter […] of a solution of prolyl endopeptidase (0.2 U/ml) was added and the mixture was heated at 35° C. for 10 minutes. After the reaction, 2.0 ml of Triton x-100 in 1M acetate buffer (pH 4.0) was added to the reaction mixture until the final concentration of the surfactant was 10%. The mixture was left at a room temperature for 15 minutes and the absorbance (a) at 410 nm was measured.
# A sample for a blind test was prepared by using the buffer solely in place of the anti-prolyl endopeptidase compound and its absorbance (b) was also measured. The percent inhibition of prolyl endopeptidase was calculated by the formula: [(b-a)/b]×100, and the amount of a specific compound needed to achieve 50% inhibition (IC50) was determined.
# [2] = system: CDF-1 strain male mice; assay: Acute toxicity test in mice; assay type: in vivo; conditions: i.p. in DMSO, five mice per group, observed 24 and 48 hours after administration
# Method: The compounds of the present invention were checked for their acute toxicity in CDF-1 strain male mice (body weight: 27.2 to 30.1 g) purchased from Awazu Laboratory Animals Co., Ltd.
# Test samples were prepared by dissolving the respective compounds in DMSO, and a portion (0.1 ml) of the so conditioned test sample was administered intraperitoneally to each of the mice used. Each of the treated groups consisted of five mice. After 24 hours and 48 hours had passed from the time of administration, respectively, the mice were observed.
# [3] = system: Experimental Amnesia caused in Rats by Scopolamine; assay: Preventive effect against experimental amnesia caused in rats by scopolamine (passive avoidance, intraperitoneal administration); assay type: in vivo, Wister male rats; conditions: for No. of amnesic rats/No. of rats tested / Percentage amnesia / Avoidance time After 24 hrs. / Avoidance time After 48 hrs.: i.p., scopolamine 3 mg/kg i.p.
# Method: Several of the anti-prolyl endopeptidase compounds according to the present invention were checked for their ability to prevent the inhibition of long-term memory fixation by scopolamine. […] One hour after the administration, electric shocks were applied to the rats so that they would acquire passive avoidance learning. Immediately thereafter, scopolamine was administered intraperitoneally to each rat in an amount of 3 mg per kg of body weight.
# The results of the test were assessed both 24 hours and 48 hours after the administration of scopolamine. The number of amnesic rats and of sound rats was counted for each of the control group (rats to which the test compounds were not administered but to which only scopolamine and physiological saline were administered intraperitoneally) and the treated group (rats to which both the test compound and scopolamine were administered).
# [4] = system: Male mice of ddY-strain; assay: Anti-hypoxia effect (survival time at 180 mmHg); assay type: in vivo; conditions: for No. of survival/used, Drug / Survival time, Drug (Mean ± S.E.): mice, 180 mmHg
# Method: Male mice of ddY-strain weighing 25 to 34 g were allotted to groups consisting of 7 to 10 animals each. Each compound to be tested was suspended in physiological saline with 2 to 3 drops of Tween 80® added thereto, and administered intraperitoneally at the rate of 0.1 ml per 10 g of body weight.
# Each mouse was put into a 1 l desiccator 30 minutes after the administration, and the pressure in the desiccator was reduced to 180 mmHg by means of a vacuum pump. The period from the start of pressure reduction to the respiratory arrest of the mouse was assumed to be the survival time (minute) of the mouse.
# If the mouse survived more than 15 minutes, its survival time was recorded as being 15 minutes. A student's t-test was adopted for the significance analysis.
# Chain of prolyl endopeptidase (P27028 21-705): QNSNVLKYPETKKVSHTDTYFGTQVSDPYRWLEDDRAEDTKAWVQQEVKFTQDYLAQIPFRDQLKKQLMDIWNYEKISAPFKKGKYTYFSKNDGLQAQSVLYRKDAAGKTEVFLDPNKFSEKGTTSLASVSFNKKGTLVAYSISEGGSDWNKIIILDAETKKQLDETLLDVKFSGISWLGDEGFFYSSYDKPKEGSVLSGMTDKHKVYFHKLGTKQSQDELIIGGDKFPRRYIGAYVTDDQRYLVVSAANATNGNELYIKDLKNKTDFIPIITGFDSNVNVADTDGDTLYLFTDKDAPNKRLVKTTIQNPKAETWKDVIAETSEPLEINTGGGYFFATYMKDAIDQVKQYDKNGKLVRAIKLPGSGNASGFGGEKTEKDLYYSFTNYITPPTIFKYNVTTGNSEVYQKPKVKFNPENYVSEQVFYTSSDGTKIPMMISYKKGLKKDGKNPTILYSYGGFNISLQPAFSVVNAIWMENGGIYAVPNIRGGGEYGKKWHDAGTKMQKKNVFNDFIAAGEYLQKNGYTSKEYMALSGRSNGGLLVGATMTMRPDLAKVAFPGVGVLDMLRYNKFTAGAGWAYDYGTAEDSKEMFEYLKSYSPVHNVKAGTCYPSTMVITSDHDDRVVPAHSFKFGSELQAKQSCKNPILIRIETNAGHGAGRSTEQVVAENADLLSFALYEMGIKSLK
smiles,measurement,setting,value
"CCCCC(NC(=O)CCCc1ccccc1)C(=O)N1CCCC1C=O (stereo not shown) [SUAM 1333, N--(4-phenyl)butanoyl--norLeu--Pro--CHO]",IC50 (amount needed to achieve 50% inhibition of prolyl endopeptidase),[1],0.4 ng/test tube
same,Average-Dose at which the mice remained sound and showed no sign of intoxication,[2],707.7 mg/kg
same,No. of amnesic rats/No. of rats tested,[3]; 20 μg/kg,0/10
same,Percentage amnesia,[3]; 20 μg/kg,0
same,Avoidance time After 24 hrs.,[3]; 20 μg/kg,300.0 s
same,anti-amnesic effect (in words),[3]; at 0.020 mg/kg,strong effect
"C[C@H](NC(=O)CCCc1ccccc1)C(=O)N1CCC[C@H]1C=O [SUAM 1110, N--(4-phenyl)butanoyl--Ala--Pro--CHO]",anti-amnesic effect (in words),[3]; 0.025 mg/kg administered,very strong effects
same,anti-amnesic effect (in words),[3]; 0.1 mg/kg administered,very strong effects
same,No. of amnesic rats/No. of rats tested,[3]; 250 μg/kg,0/10
same,Percentage amnesia,[3]; 250 μg/kg,0
same,Avoidance time After 24 hrs.,[3]; 250 μg/kg,300.0 s
same,Avoidance time After 48 hrs.,[3]; 250 μg/kg,300.0 s
same,No. of amnesic rats/No. of rats tested,[3]; 1 mg/kg,1/10
same,Percentage amnesia,[3]; 1 mg/kg,10
same,Avoidance time After 24 hrs.,[3]; 1 mg/kg,272.8 s
same,Avoidance time After 48 hrs.,[3]; 1 mg/kg,271.2 s
same,anti-amnesic effect (in words),[3]; administration of 1 mg/kg,did not manifest the desired effect
"O=C[C@@H]1CCCN1C(=O)[C@@H]1CCCN1C(=O)CCc1ccccc1 [SUAM 1339, N--(3-phenyl)propionyl--Pro--Pro--CHO] (Hydrocinnamoyl-Pro-Pro-aldehyde)",IC50 (amount needed to achieve 50% inhibition of prolyl endopeptidase),[1],0.4 ng/test tube
"O=C[C@@H]1CCCN1C(=O)[C@H](Cc1ccccc1)NC(=O)CCCc1ccccc1 [SUAM 1234, N--(4-phenyl)butanoyl--Phe--Pro--CHO]",IC50 (amount needed to achieve 50% inhibition of prolyl endopeptidase),[1],0.3 ng/test tube
same,Survival time Ratio (Drug/Control),[4]; 1 mg/kg i.p.,1.24
same,"No. of survival/used, Drug",[4]; 1 mg/kg i.p.,0/7
same,"Survival time, Drug (Mean ± S.E.)","[4]; 1 mg/kg i.p., control 2.32 ± 0.11, *P < 0.05",2.88 ± 0.17 min
same,Survival time Ratio (Drug/Control),[4]; 10 mg/kg i.p.,1.09
same,"No. of survival/used, Drug",[4]; 10 mg/kg i.p.,0/7
same,"Survival time, Drug (Mean ± S.E.)","[4]; 10 mg/kg i.p., control 2.25 ± 0.15",2.45 min
"O=C[C@@H]1CCCN1C(=O)[C@@H]1CCCN1C(=O)CCCCc1ccccc1 [SUAM 1342, N--(5-phenyl)pentanoyl--Pro--Pro--CHO]",IC50 (amount needed to achieve 50% inhibition of prolyl endopeptidase),[1],0.2 ng/test tube
"O=C[C@@H]1CCCN1C(=O)[C@@H]1CCCN1C(=O)CCCc1ccccc1 [SUAM 1231, N--(4-phenyl)butanoyl--Pro--Pro--CHO]",IC50 (amount needed to achieve 50% inhibition of prolyl endopeptidase),[1],0.2 ng/test tube
same,Average-Dose at which the mice remained sound and showed no sign of intoxication,[2],634.6 mg/kg
same,No. of amnesic rats/No. of rats tested,[3]; 20 μg/kg,0/10
same,Percentage amnesia,[3]; 20 μg/kg,0
same,Avoidance time After 24 hrs.,[3]; 20 μg/kg,300.0 s
same,anti-amnesic effect (in words),[3]; at 0.020 mg/kg,strong effect
"O=C[C@@H]1CCCN1C(=O)[C@@H]1CCCN1C(=O)Cc1ccccc1 [SUAM 1336, N--(2-phenyl)acetyl--Pro--Pro--CHO] (PhAc-Pro-Pro-aldehyde)",IC50 (amount needed to achieve 50% inhibition of prolyl endopeptidase),[1],1.0 ng/test tube
"CSCC[C@H](NC(=O)CCCc1ccccc1)C(=O)N1CCC[C@H]1C=O [SUAM 1345, N--(4-phenyl)butanoyl--Met--Pro--CHO]",IC50 (amount needed to achieve 50% inhibition of prolyl endopeptidase),[1],0.7 ng/test tube
"CC(C)CC(NC(=O)CCCc1ccccc1)C(=O)N1CCCC1C=O (stereo not shown) [SUAM 1115, N--(4-phenyl)butanoyl--Leu--Pro--CHO]",IC50 (amount needed to achieve 50% inhibition of prolyl endopeptidase),[1],0.3 ng/test tube
same,No. of amnesic rats/No. of rats tested,[3]; 25 μg/kg,0/10
same,Percentage amnesia,[3]; 25 μg/kg,0
same,Avoidance time After 24 hrs.,[3]; 25 μg/kg,300.0 s
same,Avoidance time After 48 hrs.,[3]; 25 μg/kg,300.0 s
same,anti-amnesic effect (in words),[3]; 0.025 mg/kg administered,very strong effects
same,No. of amnesic rats/No. of rats tested,[3]; 100 μg/kg,0/10
same,Percentage amnesia,[3]; 100 μg/kg,0
same,Avoidance time After 24 hrs.,[3]; 100 μg/kg,300.0 s
same,Avoidance time After 48 hrs.,[3]; 100 μg/kg,300.0 s
same,anti-amnesic effect (in words),[3]; 0.1 mg/kg administered,very strong effects
same,No. of amnesic rats/No. of rats tested,[3]; 250 μg/kg,3/10
same,Percentage amnesia,[3]; 250 μg/kg,30
same,Avoidance time After 24 hrs.,[3]; 250 μg/kg,193.2 s
same,Avoidance time After 48 hrs.,[3]; 250 μg/kg,217.1 s
same,anti-amnesic effect (in words),[3]; administration of 1 mg/kg,did not manifest the desired effect
"CC(C)[C@H](NC(=O)CCCc1ccccc1)C(=O)N1CCC[C@H]1C=O [SUAM 1117, N--(4-phenyl)butanoyl--Val--Pro--CHO]",IC50 (amount needed to achieve 50% inhibition of prolyl endopeptidase),[1],0.2 ng/test tube
same,No. of amnesic rats/No. of rats tested,[3]; 25 μg/kg,1/10
same,Percentage amnesia,[3]; 25 μg/kg,10
same,Avoidance time After 24 hrs.,[3]; 25 μg/kg,300.0 s
same,Avoidance time After 48 hrs.,[3]; 25 μg/kg,289.5 s
same,anti-amnesic effect (in words),[3]; 0.025 mg/kg administered,very strong effects
same,No. of amnesic rats/No. of rats tested,[3]; 100 μg/kg,0/10
same,Percentage amnesia,[3]; 100 μg/kg,0
same,Avoidance time After 24 hrs.,[3]; 100 μg/kg,300.0 s
same,Avoidance time After 48 hrs.,[3]; 100 μg/kg,300.0 s
same,anti-amnesic effect (in words),[3]; 0.1 mg/kg administered,very strong effects
same,No. of amnesic rats/No. of rats tested,[3]; 250 μg/kg,4/10
same,Percentage amnesia,[3]; 250 μg/kg,40
same,Avoidance time After 24 hrs.,[3]; 250 μg/kg,232.0 s
same,Avoidance time After 48 hrs.,[3]; 250 μg/kg,194.4 s
same,No. of amnesic rats/No. of rats tested,[3]; 1 mg/kg,6/10
same,Percentage amnesia,[3]; 1 mg/kg,60
same,Avoidance time After 24 hrs.,[3]; 1 mg/kg,161.6 s
same,Avoidance time After 48 hrs.,[3]; 1 mg/kg,125.0 s
same,anti-amnesic effect (in words),[3]; administration of 1 mg/kg,did not manifest the desired effect
